The values below come from patent US12102672B2, “Immunogenic sequences from a phage tail length tape measure protein, bacteria expressing the same and their use in treating a cancer” (INSTITUT GUSTAVE ROUSSY, priority 2017, dated 2024).

Data set [1] concerns autologous CD4+ T cells or CD8+ T cells. The experiment in a line: Blood T cell responses of breast cancer patients to monocytes stimulated with bacteria (IFN-γ, IL-10 release). The data set is classed as cell-based, human. The protocol:
FIG. 22. T cell responses against commensals in blood from breast cancer patients at diagnosis priori to chemotherapy. Autologous monocytes harvested from breast cancer patients were stimulated with distinct bacterial spp. and then incubated with autologous CD4+ T cells or CD8+ T cells to monitor IFN-γ and IL-10 release. (A) TH1/Tc1/Tr1 immune responses to E. hirae 13144. […] (B) TH1/Tc1/Tr1 immune responses to E. coli or TCR cross-linking. BC women display memory T cell responses against E. coli and respond to TCR cross-linking.

Data set [2] concerns MCA205 cells with PSMB4 GSFARFRNI knock-in. The experiment in a line: Growth of Psmb4 knock-in MCA205 tumors under CTX +/- E. hirae 13144. In kind it is in vivo, mice. The note with it: L→F exchange in position 3, versus WT MCA205.
The test system of data set [3] is splenic CD8+ T cells. The data set can be described thus: IFNγ ELISpot recall assay of splenic CD8+ T cells with DCs pulsed with heat-inactivated bacteria or peptides. In kind it is cell-based, mice. The note with it: for memory Tc1 immune response (IFNγ spots) to BM-DC infected with EH isolates: Example 2, FIG. 10, splenic CD8+ T cells after gavage + CTX, ELISPOT at 24 hrs; for specific TC1 immune responses after restimulation with E. hirae strains loaded onto DC: Example 12, FIG. 27D, prime-boost exposure + CTX. As for the experimental part:
FIG. 9. Experimental immunization protocols to elucidate the immunogenicity of EH peptides. […] 5 days after the first oral gavage, mice are treated with CTX. One week post-CTX, CD8+ T cells are isolated from spleen. These CD8+ T cells are incubated with dendritic cells (DCs) pulsed with 20 μg/ml of peptides (during 1 hour) or with heat-inactivated bacteria (during 6 hours). Inactivation of bacteria consists in incubation at 65° C. during 2 hours. After 24 hours of culture, ELIspot of IFNγ is performed.
FIG. 10. Cross-reactivity between the two E. hirae 708 and 13144 species for CTL splenic reactivity. Number of IFNγ spot representing IFNγ-secreting CD8+ T cells after co-culture with DCs pre-incubated with or without heat-inactivated bacteria (708, 13144, EH17 and L. plantarum).
FIG. 13. Peptides from group 7 containing the TMP1 and TMP2 epitopes activate CD8+ T cells from spleen of mice immunized against E. hirae 13144. Number of IFNγ spot, representing IFNγ-secreting CD8+ T cells, after incubation with DCs pulsed with 13 different group of peptide (Table 6). Just group n° 1 (A) and group n° 7 (B) are shown. (C, E) Number of IFNγ spot, representing IFNγ-secreting CD8+ T cells, after incubation with DCs pulsed with 4 peptides belong to group n° 7 (in table 7). (D) Sequence alignment of TMP1 and TMP2 of EH10815 (SEQ ID Nos: 228 and 229 respectively) compared to EH13144 (fragments of SEQ ID NO: 1) at the level of immunogenic peptides. Amino acid sequence […] corresponds to SEQ ID No: 13. Amino acid sequence […] corresponds to SEQ ID No: 217. Amino acid sequence […] corresponds to SEQ ID Nos: 14. Amino acid sequence AlIEFIKGL corresponds to SEQ ID No: 218. (E) In vitro reactivity of splenic CTL in a recall response to TMP1 and TMP2 as well as Group7 after in vivo immunization with other strains of EH.
A and C. Experimental setting. […] D-E. Ex vivo recall assays. […] Each dot represents one mouse.

In data set [4] the test system is pTh17 cells. The experiment in a line: Induction of pTh17 cells in secondary lymphoid organs of CTX-treated animals. In kind it is in vivo. An excerpt:
The reasons for these differences were however unknown, and the inventors pursued their research to identify the factor(s) responsible for the immunogenic properties of the murine strain EH13144 and the human clones IGR4, IGR7 and IGR11, in order to derive new molecules or microorganisms useful in the treatment of cancer.

The test system of data set [5] is E. gallinarum. The data set can be described thus: Phage transmission from E. hirae to E. gallinarum in small intestine enteroids. The arrangement: species or system Enterococcus gallinarum. The note with it: 1:1 ratio E. hirae / E. gallinarum on enteroids. An excerpt: . […] Also refer to FIG. 39.
Temperate bacteriophages are bacterial viruses that transfer virulence, antimicrobial resistance genes, and immunogenic sequences to new bacterial hosts (Weinbauer, 2004). The TMP protein, which contains a variable number of tandem repeats with highly conserved tryptophan and phenylalanine residues at fixed positions is encoded by the genome of Siphoviridae phages (Belcaid et al., 2011; Piuri and Hatfull, 2006). To analyze the capacity of E. hirae 13144 to contagiously disseminate the phage TMP sequence, we performed culturomic analyses of the ileal content from C57BL/6 mice subjected to oral gavage with E. hirae 13144 and systemic CTX therapy (FIG. 30C). […] Of note, none of the 90 colonies (mostly of E. gallinarum) isolated from naive mice harbored the TMP sequence (FIG. 39). Moreover, CTX plays a role in eliminating the E. gallinarum, allowing the niching and/or colonization of E. hirae in the small intestine, as shown in vitro in enteroid systems or in PCR of the ileal content (FIG. 30G and not shown). Importantly, incubation of small intestine enteroids with a balanced 1:1 ratio of E. hirae or E. gallinarum harbouring or not the phage respectively, lead to the transmission of the infectious/lytic phage to E. gallinarum by E. hirae in 9% of colonies at 6 hrs and 26% at 20 hrs (FIG. 30G).

The test system of data set [6] is TMP1-specific CD8+ T cells.
Data set [7] relates to IFNg producing CD8^+ T (Tc1) cells. The note with it: naïve mice; cited from earlier work.

As to “Enterococcus hirae strain 13144 [Peptide 13144]”, in data set [1] (FIG. 22A), the “BC patients who developed IL-10 producing memory CD4+ T cell responses” value was 52% and the “BC patients with CD4+ T cells exhibiting no reactivity to pulsed monocytes” value worked out at 32%. Moreover, the “BC patients at diagnosis exhibiting a blood TH1/Tc1 immune response” value in data set [1] (prior to chemotherapy) is “Less than 20%”. In data set [2], the “anticancer effect on PSMB4 knock-in (GSFARFRNI) MCA205 tumors” value is reported as “drastically blunted the anticancer effects”. For the same substance, in data set [3], the “memory Tc1 immune response (IFNγ spots) to BM-DC infected with EH isolates” value is reported as “could induce memory Tc1 immune responses” and the “specific TC1 immune responses after restimulation with E. hirae strains loaded onto DC” value is recorded as “triggered specific TC1 immune responses”. Besides, the “capacity to induce pTh17 cells in secondary lymphoid organs” value in data set [4] is given as “significant capacity to induce pTh17 cells”. Besides, the “colonies of E. gallinarum with transmitted phage” value in data set [5] (6 hrs) was determined as 9%. Besides, in data set [5] (20 hrs), the “colonies of E. gallinarum with transmitted phage” value was 26%. The “splenic CD8+ T cells recognizing the TMP1 peptide” value in data set [6] (day 12 following CTX/E. hirae 13144 regimen, FIG. 27F) is listed as “Up to 1%”. Also, in data set [6] (spleens from naive and tumor bearers, tumor draining lymph nodes), the “enrichment of TMP1-specific CTLs in the TC1 subset harboring CCR9” value is recorded as 3-5 fold.
For “Enterococcus hirae 708 [Peptide 708, reference compound]”, the “immunogenic and oncomicrobiotic properties of the isolate” value in data set [7] is “induced IFNg producing CD8^+ T (Tc1) cells”. Also, in data set [3], the “memory Tc1 immune response (IFNγ spots) to BM-DC infected with EH isolates” value is “could induce memory Tc1 immune responses” and the “specific TC1 immune responses after restimulation with E. hirae strains loaded onto DC” value is “failed to do so”. Also, the “TC1 response against TMP1 in mice gavaged with the strain (IFNγ ELISpot)” value in data set [3] (Example 12, FIG. 27E) is on record as “unable to do so”.
